Key:
Type in all cases: cell-based, Lactobacillus plantarum
L. plantarum PN0512 [1] = assay: Growth yield of fatty acid fed cultures in the presence of 2-butanol; settings: for OD600 (growth yield): overnight growth at 30° C., average of biological replicates
Protocol: (§1) Growth medium was semi-synthetic LAB medium, pH7, with bovine serum albumin (BSA) used as a carrier. […] The composition of this medium is as follows:
(§2) All medium ingredients were purchased from Sigma Chemical Company (St. Louis, Mo.) except yeast extract and casamino acids, which were purchased from Beckton, Dickinson and Co (Sparks, Md.). Free fatty acids, added to a final concentration of […] from 1% ethanol stock solutions (stored at −20° C.), were purchased from Sigma Chemical Company (St Louis, Mo.), Isobutanol, 1-butanol, 2-butanol, and methyl ethyl ketone (MEK) were purchased from Sigma Chemical Company (St. Louis, Mo.).
(§3) A working stock of Lactobacillus plantarum PN0512 (ATCC # PTA-7727) was prepared to use as a consistent source of inoculum. Cultures were grown in MRS medium (Acumedia Manufacturers, Inc. Lansing, Mich.) at 30° C. overnight. Glycerol was added to a final concentration of 12.5% and aliquots were frozen at −80° C. One aliquot was thawed at room temperature and used to inoculate all tubes in an experiment and then discarded.
(§4) For growth yield experiments, 5 ml of medium with fatty acids and several concentrations of 1-butanol, isobutanol, 2-butanol, or MEK in 15 ml screw cap tubes was inoculated with 12.5 μl of the working stock giving an initial OD600 of 0.012. The caps were tightly sealed and incubated at 30° C. on a roller drum for 20 to 26 hours, at which time 1.0 ml was removed and OD600 was measured with a blank of medium amended with the fatty acid. All solvent concentrations are reported as % (w/v).
(§5) Cultures were prepared as described in General Methods.

L. plantarum PN0512 [2] = assay: Growth yield of fatty acid fed cultures in the presence of 1-butanol; settings: for OD600 (growth yield): overnight growth at 30° C., average of biological replicates
Protocol: as §1, §2, §3, §4, §5

L. plantarum PN0512 [3] = assay: Growth yield of fatty acid fed cultures in the presence of MEK; settings: for OD600 (growth yield): overnight growth at 30° C., average of biological replicates
Protocol: as §1, §2, §3, §4, §5

L. plantarum PN0512 [4] = assay: Growth yield of fatty acid fed cultures in the presence of isobutanol; settings: for OD600 (growth yield): 20 hours at 30° C., average of two experiments
Protocol: as §1, §2, §3, §4
Growth in the presence of these fatty acids and various concentrations of isobutanol was tested. Cultures were prepared as described in General Methods.

| Structure (SMILES) | OD600 (growth yield) (L. plantarum PN0512 [1]; 2-butanol 0 % w/v) | OD600 (growth yield) (L. plantarum PN0512 [1]; 2-butanol 2.0 % w/v) | OD600 (growth yield) (L. plantarum PN0512 [1]; 2-butanol 4.0 % w/v) | OD600 (growth yield) (L. plantarum PN0512 [1]; 2-butanol 4.5 % w/v) | OD600 (growth yield) (L. plantarum PN0512 [1]; 2-butanol 4.7 % w/v) | OD600 (growth yield) (L. plantarum PN0512 [1]; 2-butanol 4.9 % w/v) | OD600 (growth yield) (L. plantarum PN0512 [1]; 2-butanol 5.1 % w/v) | OD600 (growth yield) (L. plantarum PN0512 [1]; 2-butanol 5.3 % w/v) | OD600 (growth yield) (L. plantarum PN0512 [1]; 2-butanol 5.5 % w/v) | OD600 (growth yield) (L. plantarum PN0512 [2]; 1-butanol 0 % (w/v)) | OD600 (growth yield) (L. plantarum PN0512 [2]; 1-butanol 2.0 % (w/v)) | OD600 (growth yield) (L. plantarum PN0512 [2]; 1-butanol 2.25 % (w/v)) | OD600 (growth yield) (L. plantarum PN0512 [2]; 1-butanol 2.5 % (w/v)) | OD600 (growth yield) (L. plantarum PN0512 [2]; 1-butanol 2.75 % (w/v)) | OD600 (growth yield) (L. plantarum PN0512 [2]; 1-butanol 3.0 % (w/v)) | OD600 (growth yield) (L. plantarum PN0512 [3]; MEK 0 % (w/v)) | OD600 (growth yield) (L. plantarum PN0512 [3]; MEK 3.5 % (w/v)) | OD600 (growth yield) (L. plantarum PN0512 [3]; MEK 4.0 % (w/v)) | OD600 (growth yield) (L. plantarum PN0512 [3]; MEK 4.5 % (w/v)) | OD600 (growth yield) (L. plantarum PN0512 [3]; MEK 5.0 % (w/v)) | further results |
| --- | --- | --- | --- | --- | --- | --- | --- | --- | --- | --- | --- | --- | --- | --- | --- | --- | --- | --- | --- | --- | --- |
| CCCCCCCC/C=C/CCCCCCCC(=O)O [elaidic acid, (E)-octadec-9-enoic acid] | 1.490 | 1.430 | 1.030 | 0.400 | 0.186 | 0.088 | 0.038 | 0.030 | 0.008 | 1.508 | 1.039 | 1.003 | 0.559 | 0.095 | 0.009 | 1.548 | 1.0041 | 0.9105 | 0.8871 | 0.3235 | tolerance to 2-butanol when compared to the oleic acid fed culture (L. plantarum PN0512 [1]): improved tolerance; growth yield higher than in the oleic acid fed cultures (L. plantarum PN0512 [1]; 4.5% w/v 2-butanol): 4 fold; growth yield higher than in the oleic acid fed cultures (L. plantarum PN0512 [2]; 2.5% w/v 1-butanol): greater than 3 fold; growth yield compared with the oleic acid fed cultures (L. plantarum PN0512 [2]; concentrations greater than 2% 1-butanol): greater; tolerance to MEK as compared with oleic acid fed cultures (L. plantarum PN0512 [3]): did not have improved tolerance to MEK; OD600 (growth yield) (L. plantarum PN0512 [3]; MEK 5.5 % (w/v)): 0.1477; growth yield higher than in the oleic acid fed cultures (L. plantarum PN0512 [4]; 2.5% w/v isobutanol): 78%; growth yield compared with the oleic acid fed cultures (L. plantarum PN0512 [4]; concentrations greater than 2% isobutanol): greater; OD600 (growth yield) (L. plantarum PN0512 [4]; isobutanol 1.5 % w/v): 1.145; OD600 (growth yield) (L. plantarum PN0512 [4]; isobutanol 2.0 % w/v): 1.100; OD600 (growth yield) (L. plantarum PN0512 [4]; isobutanol 2.5 % w/v): 0.922; OD600 (growth yield) (L. plantarum PN0512 [4]; isobutanol 2.7 % w/v): 0.606; OD600 (growth yield) (L. plantarum PN0512 [4]; isobutanol 2.9 % w/v): 0.281; OD600 (growth yield) (L. plantarum PN0512 [4]; isobutanol 3.1 % w/v): 0.122; OD600 (growth yield) (L. plantarum PN0512 [4]; isobutanol 3.3 % w/v): 0.072; OD600 (growth yield) (L. plantarum PN0512 [4]; isobutanol 3.5 % w/v): 0.042 |
| CCCCCCCC/C=C\CCCCCCCC(=O)O [oleic acid, reference compound] | 1.480 | 1.410 | 0.431 | 0.100 | 0.067 | 0.040 | 0.030 | 0.004 | 0.004 | 1.509 | 1.026 | 0.611 | 0.161 | 0.061 | 0.003 | 1.539 | 1.002 | 0.9446 | 0.942 | 0.6828 | OD600 (growth yield) (L. plantarum PN0512 [1]; 2-butanol 3.0 % w/v): 1.130; OD600 (growth yield) (L. plantarum PN0512 [3]; MEK 5.5 % (w/v)): 0.5004; OD600 (growth yield) (L. plantarum PN0512 [4]; isobutanol 1.5 % w/v): 1.110; OD600 (growth yield) (L. plantarum PN0512 [4]; isobutanol 2.0 % w/v): 1.130; OD600 (growth yield) (L. plantarum PN0512 [4]; isobutanol 2.5 % w/v): 0.519; OD600 (growth yield) (L. plantarum PN0512 [4]; isobutanol 2.7 % w/v): 0.387; OD600 (growth yield) (L. plantarum PN0512 [4]; isobutanol 2.9 % w/v): 0.095; OD600 (growth yield) (L. plantarum PN0512 [4]; isobutanol 3.1 % w/v): 0.063; OD600 (growth yield) (L. plantarum PN0512 [4]; isobutanol 3.3 % w/v): 0.035; OD600 (growth yield) (L. plantarum PN0512 [4]; isobutanol 3.5 % w/v): 0.015 |

Reference: US8652823B2, “Strain for butanol production with increased membrane unsaturated trans fatty acids” (Butamax(TM) Advanced Biofuels LLC, priority 2008, dated 2014)
